{"source": "ChEMBL document CHEMBL4823315", "about": "(Bioorg Med Chem Lett, 2021)", "key": {"[1]": {"experiment": "Half life in CD-1 mouse at 5 mg/kg, po or 5 mg/kg, iv", "type": "ADME, organism-based", "settings": "in vivo"}, "Cytochrome P450 2C9": {"target": "Cytochrome P450 2C9 (Homo sapiens, UniProt P11712)", "sequence (P11712 whole entry)": "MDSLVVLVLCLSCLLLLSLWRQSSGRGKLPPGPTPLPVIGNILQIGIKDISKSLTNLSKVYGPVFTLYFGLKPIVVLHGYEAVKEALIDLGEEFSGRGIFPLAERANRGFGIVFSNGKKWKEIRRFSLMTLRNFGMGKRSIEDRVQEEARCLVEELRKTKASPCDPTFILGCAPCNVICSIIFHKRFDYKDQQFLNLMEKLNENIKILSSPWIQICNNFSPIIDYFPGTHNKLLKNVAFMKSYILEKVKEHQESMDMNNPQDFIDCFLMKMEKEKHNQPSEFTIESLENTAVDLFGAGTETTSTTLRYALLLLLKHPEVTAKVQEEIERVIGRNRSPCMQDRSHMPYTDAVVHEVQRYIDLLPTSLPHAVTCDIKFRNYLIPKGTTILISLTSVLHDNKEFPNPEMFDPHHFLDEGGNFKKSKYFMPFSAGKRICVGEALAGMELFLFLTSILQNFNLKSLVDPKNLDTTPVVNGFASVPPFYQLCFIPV", "experiment": "Inhibition of CYP2C9 (unknown origin)", "type": "ADME"}, "MDA-MB-436": {"system": "MDA-MB-436", "experiment": "Antitumor activity against human MDA-MB-436 cells xenografted in mouse assessed as tumor growth inhibition at 200 mg/kg, po qd and measured for 28 days", "type": "functional", "settings": "MDA-MB-436, po, 672 h, time 28 day, read-out: TGI"}, "[2]": {"experiment": "AUC in Sprague-Dawley rat at 5 mg/kg, po", "type": "ADME, organism-based", "design": "dose 5 mg/kg", "settings": "in vivo"}, "[3]": {"target": "Serine/threonine-protein kinase AKT (Homo sapiens, UniProt P31751+Q9Y243+P31749)", "experiment": "Inhibition of Akt (unknown origin)", "type": "protein assay"}, "[4]": {"experiment": "Cmax in Sprague-Dawley rat at 5 mg/kg, po", "type": "ADME, organism-based", "design": "route oral, dose 5 mg/kg", "settings": "in vivo"}, "[5]": {"experiment": "In vivo Inhibition of Akt/p70S6K in mouse xenografted with human MDA-MB-436 cells assessed as reduction in S6 phosphorylation in tumor at 200 mg/kg, po measured after 24 hrs", "type": "functional", "settings": "MDA-MB-436, po"}, "[6]": {"experiment": "Inhibition of p70S6K (unknown origin)", "design": "species or system Homo sapiens"}, "Cytochrome P450 3A4": {"target": "Cytochrome P450 3A4 (Homo sapiens, UniProt P08684)", "sequence (P08684 whole entry)": "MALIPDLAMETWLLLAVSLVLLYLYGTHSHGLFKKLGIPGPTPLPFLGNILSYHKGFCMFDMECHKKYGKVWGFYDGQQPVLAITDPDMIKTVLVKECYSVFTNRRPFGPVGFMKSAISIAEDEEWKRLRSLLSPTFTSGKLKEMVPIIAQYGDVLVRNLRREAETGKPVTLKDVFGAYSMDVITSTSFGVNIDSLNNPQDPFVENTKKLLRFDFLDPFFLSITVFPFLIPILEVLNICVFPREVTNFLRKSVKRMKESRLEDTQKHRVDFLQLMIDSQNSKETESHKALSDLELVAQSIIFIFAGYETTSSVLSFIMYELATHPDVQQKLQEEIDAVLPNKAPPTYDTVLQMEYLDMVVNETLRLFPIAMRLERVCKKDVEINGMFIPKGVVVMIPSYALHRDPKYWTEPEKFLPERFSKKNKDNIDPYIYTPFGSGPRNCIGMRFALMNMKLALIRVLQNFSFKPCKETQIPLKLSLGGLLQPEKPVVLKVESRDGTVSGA", "experiment": "Inhibition of CYP3A4 (unknown origin)", "type": "ADME"}, "[7]": {"experiment": "AUC in Beagle dog at 0.5 mg/kg, po", "type": "ADME, organism-based, Canis lupus familiaris", "design": "dose 0.5 mg/kg", "settings": "in vivo"}, "[8]": {"experiment": "Half life in cynomolgus monkey at 0.5 mg/kg, po or 0.2 mg/kg, iv", "type": "ADME, organism-based, Macaca fascicularis", "settings": "in vivo"}, "[9]": {"experiment": "Clearance in cynomolgus monkey at 0.5 mg/kg, po or 0.2 mg/kg, iv", "type": "ADME, organism-based, Macaca fascicularis", "settings": "in vivo"}, "[10]": {"experiment": "Protein binding in mouse plasma assessed as unbound fraction", "type": "ADME, cell-free"}, "[11]": {"experiment": "Oral bioavailability in Sprague-Dawley rat at 5 mg/kg", "type": "ADME, organism-based", "settings": "in vivo"}, "[12]": {"experiment": "Oral bioavailability in cynomolgus monkey at 0.5 mg/kg", "type": "ADME, organism-based, Macaca fascicularis", "settings": "in vivo"}, "[13]": {"experiment": "Intrinsic clearance in human liver microsomes", "type": "ADME, Microsome", "settings": "read-out: CLH"}, "[14]": {"experiment": "Protein binding in human plasma assessed as unbound fraction", "type": "ADME, cell-free"}, "[15]": {"experiment": "AUC in cynomolgus monkey at 0.5 mg/kg, po", "type": "ADME, organism-based, Macaca fascicularis", "design": "dose 0.5 mg/kg", "settings": "in vivo"}, "Cytochrome P450 2C19": {"target": "Cytochrome P450 2C19 (Homo sapiens, UniProt P33261)", "sequence (P33261 whole entry)": "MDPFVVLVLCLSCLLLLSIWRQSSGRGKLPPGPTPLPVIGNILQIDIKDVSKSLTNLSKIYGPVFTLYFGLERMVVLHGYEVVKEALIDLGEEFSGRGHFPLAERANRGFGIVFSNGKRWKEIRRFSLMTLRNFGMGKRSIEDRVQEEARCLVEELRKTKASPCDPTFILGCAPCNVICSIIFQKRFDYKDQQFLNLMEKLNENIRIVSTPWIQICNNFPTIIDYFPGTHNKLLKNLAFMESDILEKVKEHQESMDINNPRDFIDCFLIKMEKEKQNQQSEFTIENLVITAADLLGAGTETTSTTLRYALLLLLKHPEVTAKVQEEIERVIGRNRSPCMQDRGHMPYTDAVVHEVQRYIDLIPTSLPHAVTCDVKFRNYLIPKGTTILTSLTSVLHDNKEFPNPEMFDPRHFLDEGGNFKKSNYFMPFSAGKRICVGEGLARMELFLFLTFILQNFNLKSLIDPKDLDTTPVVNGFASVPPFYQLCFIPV", "experiment": "Inhibition of CYP2C19 (unknown origin)", "type": "ADME"}, "[16]": {"experiment": "Thermodynamic solubility of the compound at pH 7.4", "type": "physicochemical", "settings": "buffer, read-out: Therm_solubility"}, "[17]": {"experiment": "Volume of distribution in CD-1 mouse at 5 mg/kg, po or 5 […], iv", "type": "ADME, organism-based", "settings": "in vivo"}, "[18]": {"experiment": "Cmax in cynomolgus monkey at 0.5 mg/kg, po", "type": "ADME, organism-based, Macaca fascicularis", "design": "route oral, dose 0.5 mg/kg", "settings": "in vivo"}}, "note": "pIC50: −log10 of the molar value."}
{"smiles": "NC(=O)c1c(N)ncnc1N1CCC(c2nc(-c3ccc(F)c(C(F)(F)F)c3)cn2CCN2CCC2)CC1", "values": [{"measurement": "half-life", "setting": "[1]", "value": 9.3, "unit": "h"}, {"measurement": "pIC50", "setting": "Cytochrome P450 2C9", "value": "< 4.70"}, {"measurement": "inhibition in vivo at 200 mg/kg", "setting": "MDA-MB-436", "value": 98, "unit": "%"}, {"measurement": "AUC", "setting": "[2]", "value": 43.4, "unit": "ng·h/mL"}, {"measurement": "IC50", "setting": "[3]", "value": 0.016, "unit": "µM"}, {"measurement": "Cmax", "setting": "[4]", "value": 13, "unit": "ng/mL"}, {"measurement": "inhibition in vivo at 200 mg/kg", "setting": "[5]", "value": 92, "unit": "%"}, {"measurement": "pIC50", "setting": "[6]", "value": 8.52}, {"measurement": "pIC50", "setting": "Cytochrome P450 3A4", "value": "< 4.70"}, {"measurement": "AUC", "setting": "[7]", "value": 2370, "unit": "ng·h/mL"}, {"measurement": "half-life", "setting": "[8]", "value": 4, "unit": "h"}, {"measurement": "clearance", "setting": "[9]", "value": 42.8, "unit": "mL/min/kg"}, {"measurement": "fraction unbound", "setting": "[10]", "value": 0.21}, {"measurement": "bioavailability", "setting": "[11]", "value": 17, "unit": "%"}, {"measurement": "bioavailability", "setting": "[12]", "value": 23, "unit": "%"}, {"measurement": "microsomal CLint", "setting": "[13]", "value": 46, "unit": "µL/min/mg"}, {"measurement": "fraction unbound", "setting": "[14]", "value": 0.21}, {"measurement": "AUC", "setting": "[15]", "value": 82, "unit": "ng·h/mL"}, {"measurement": "pIC50", "setting": "Cytochrome P450 2C19", "value": "< 4.70"}, {"measurement": "solubility thermodynamic", "setting": "[16]", "value": 4, "unit": "µg/mL"}, {"measurement": "Vd", "setting": "[17]", "value": 19.3, "unit": "L/kg"}, {"measurement": "Cmax", "setting": "[18]", "value": 9.7, "unit": "ng/mL"}]}
